The record followed here is patent US8551984B2, “Aminopyrimidines as SYK inhibitors” (Merck Sharp & Dohme Corp., priority 2009, dated 2013).

Molecules are shown by their SMILES. Some results are limits rather than exact numbers.

In the first experiment the target is recombinant human SYK (GST-hSYK fusion protein) (Homo sapiens, UniProt P43405). Kind of experiment: biochemical. The following applies: rhSYK Activity (IC50), recombinant human GST-SYK 5 pM, ATP 25 μM, biotinylated substrate peptide 250 nM, HTRF, 10-dose titration. (Time-resolved FRET reads energy transfer from a long-lived donor to a nearby acceptor.)
Text: Homogeneous Time-Resolved Fluorescence (HTRF) Assay for the Recombinant Human SYK Enzyme:
For the compound `Cc1cc(Nc2nccc(OC3CCCC3)n2)cc(-c2cnc(C3(O)CCC3)s2)c1` [Example 94A-31], the IC50 (as a rule, the concentration that inhibits the measured activity by half) was < 100 nM.

`Cc1cc(Nc2nccc(OC3CCCCC3)n2)cc(-c2cnc(C3(O)CCC3)s2)c1` [Example 94A-32]: the IC50 lay in the range of 100 to 1000 nM.

For `Cc1cc(Nc2nccc(OC3CCNCC3)n2)cc(-c2cnc(C3(O)CCC3)s2)c1` [Example 94A-33], the IC50 is < 100 nM.

With `Cc1cc(Nc2nccc(OCc3ccccc3)n2)cc(-c2cnc(C(C)(O)C(F)(F)F)s2)c1` (stereo not shown) [Example 94B-1, 2-[5-(3-{[4-(benzyloxy)pyrimidin-2-yl]-amino}-5-methylphenyl)-1,3-thiazol-2-yl]-1,1,1-trifluoropropan-2-ol], the IC50 is < 100 nM.

On to `Cc1cc(Nc2nccc(OC3CCC(C)(O)CC3)n2)cc(-c2cnc(C(C)(O)C(F)(F)F)s2)c1` (stereo not shown) [Example 94B-2], for which the IC50 is < 100 nM.

For `Cc1cc(Nc2nccc(OC3CCC(OCc4ccccc4)CC3)n2)cc(-c2cnc(C(C)(O)C(F)(F)F)s2)c1` (stereo not shown) [Example 94B-3, 2-(5-{3-[(4-{[4-(benzyloxy)cyclohexyl]oxy}pyrimidin-2-yl)amino]-5-methylphenyl}-1,3-thiazol-2-yl)-1,1,1-trifluoropropan-2-ol], the IC50 was 100 to 1000 nM.

Take `Cc1cc(Nc2nccc(OC3CCNCC3F)n2)cc(-c2cnc(C(C)(O)C(F)(F)F)s2)c1` (stereo not shown) [Example 94B-4]: the IC50 was < 100 nM.

For `Cc1cc(Nc2nccc(OC3CCNCC3)n2)cc(-c2cnc(C(C)(O)C(F)(F)F)s2)c1` (stereo not shown) [Example 94B-6], the IC50 was < 100 nM.

Turning to `Cc1cc(Nc2nccc(O[C@H]3CCNC3)n2)cc(-c2cnc(C(C)(O)C(F)(F)F)s2)c1` (stereo partly shown) [Example 94B-9], the IC50 is < 100 nM.

In the case of `CC(O)c1ncc(-c2cccc(Nc3nccc(OC4CCNCC4)n3)c2)s1` (stereo not shown) [Example 94B-10], the IC50 is < 100 nM.

For `Cc1cc(Nc2nccc(N3CCCC(=O)NC3)n2)cc(-c2cnc(C3(O)CCC3)s2)c1` [Example 94C-1], the IC50 is < 100 nM.

As to `Cc1cc(Nc2nccc(OC(C)(C)C(=O)O)n2)cc(-c2cnc(C3(O)CCC3)s2)c1` [Example 95, 2-{[2-({3-[2-(1-hydroxycyclobutyl)-1,3-thiazol-5-yl]-5-methylphenyl}amino)pyrimidin-4-yl]oxy}-2-methylpropanoic acid], the IC50 is 100 to 1000 nM.

With `Cc1cc(Nc2nccc(OC3CCC(C(=O)O)CC3)n2)cc(-c2cnc(C3(O)CCC3)s2)c1` (stereo not shown) [Example 97, 4-{[2-({3-[2-(1-hydroxycyclobutyl)-1,3-thiazol-5-yl]-5-methylphenyl}amino)pyrimidin-4-yl]oxy}cyclohexanecarboxylic acid], the IC50 is < 100 nM.

Turning to `Cc1cc(Nc2nccc(Cl)n2)cc(-c2cnc(C(C)(O)C(F)(F)F)s2)c1` (stereo not shown) [Example 98, 2-(5-{3-[(4-chloropyrimidin-2-yl)amino]-5-methylphenyl}-1,3-thiazol-2-yl)-1,1,1-trifluoropropan-2-ol], the IC50 is < 100 nM.

As to `COc1ccnc(Nc2cc(C)cc(-c3cnc(C4(O)CCC4)s3)c2)n1` [Example 100A-1], the IC50 is < 100 nM.

`Cc1cc(Nc2nccc(C)n2)cc(-c2cnc(C3(O)CCC3)s2)c1` [Example 100A-2]: the IC50 is < 100 nM.

In the case of `Cc1cc(Nc2ncccn2)cc(-c2cnc(C3(O)CCC3)s2)c1` [Example 100A-3], the IC50 lay within 100 to 1000 nM.

Turning to `Cc1cc(Nc2ncc(F)cn2)cc(-c2cnc(C3(O)CCC3)s2)c1` [Example 100A-4], the IC50 lay within 100 to 1000 nM.

For the compound `Cc1cc(Nc2ncc(Cl)cn2)cc(-c2cnc(C3(O)CCC3)s2)c1` [Example 100A-5], the IC50 was in the range of 100 to 1000 nM.

For the compound `CCc1cnc(Nc2cc(C)cc(-c3cnc(C4(O)CCC4)s3)c2)nc1` [Example 100A-6], the IC50 was 100 to 1000 nM.

As to `Cc1cc(Nc2nccc(C#N)n2)cc(-c2cnc(C3(O)CCC3)s2)c1` [Example 100A-7], the 50% inhibitory concentration (IC50) was < 100 nM.

On to `Cc1cc(Nc2nc(C)cc(C)n2)cc(-c2cnc(C3(O)CCC(C(=O)O)C(C)(C)C3)s2)c1` (stereo not shown) [Example 100A-9], for which the IC50 fell in the range of 100 to 1000 nM.

Consider `COc1nc(Nc2cc(C)cc(-c3cnc(C4(O)CCC(O)CC4)s3)c2)ncc1C(F)(F)F` (stereo not shown) [Example 100A-11], for which the IC50 was in the range of 100 to 1000 nM.

Regarding `COc1nc(Nc2cc(C)cc(-c3cnc(C4(O)CCC(C(=O)O)C(C)(C)C4)s3)c2)ncc1C` (stereo not shown) [Example 100A-13], the IC50 was < 100 nM.

As for `Cc1cc(Nc2ncc(C)c(N(C)C)n2)cc(-c2cnc(C3(O)CCC(C(=O)O)C(C)(C)C3)s2)c1` (stereo not shown) [Example 100A-16], the IC50 is < 100 nM.

Regarding `Cc1cc(Nc2nccc(C(C)(C)O)n2)cc(-c2cnc(C3(O)CCC(C(=O)O)C(C)(C)C3)s2)c1` (stereo not shown) [Example 100A-17], the IC50 is < 100 nM.

Turning to `Cc1cc(Nc2nccc(C(F)C3CC3)n2)cc(-c2cnc(C3(O)CCC(C(=O)O)C(C)(C)C3)s2)c1` (stereo not shown) [Example 100A-20], the IC50 is < 100 nM.

With `Cc1cc(Nc2nccc(C=CC(C)(C)O)n2)cc(-c2cnc(C3(O)CCC(C(=O)O)C(C)(C)C3)s2)c1` (stereo not shown) [Example 100A-23], the IC50 is < 100 nM.

On to `Cc1cc(Nc2nccc(C(C)(O)C3CC3)n2)cc(-c2cnc(C3(O)CCC(C(=O)O)C(C)(C)C3)s2)c1` (stereo not shown) [Example 100A-24], for which the IC50 is < 100 nM.

Take `COC(=O)C1CCC(O)(c2ncc(-c3cc(C)cc(Nc4ncc(C(F)(F)F)c(OC)n4)c3)s2)CC1(C)C` (stereo not shown) [Example 100A-27]: the IC50 lay within 1000 to 10000 nM.

Consider `COC(=O)[C@H]1CC[C@](O)(c2ncc(-c3cc(C)cc(Nc4ncc5c(n4)CCC5)c3)s2)CC1(C)C` [Example 100A-29], for which the IC50 lay within 100 to 1000 nM.

Take `COc1ccnc(Nc2cc(C)cc(-c3cnc(C(C)(O)C(F)(F)F)s3)c2)n1` (stereo not shown) [Example 100B-1]: the IC50 was < 100 nM.

For the compound `Cc1cc(Nc2ncc(F)cn2)cc(-c2cnc(C(C)(O)C(F)(F)F)s2)c1` (stereo not shown) [Example 100B-2], the IC50 is < 100 nM.

Turning to `COc1cnc(Nc2cc(C)cc(-c3cnc(C(C)(O)C(F)(F)F)s3)c2)nc1` (stereo not shown) [Example 100B-3], the concentration for half-maximal inhibition (IC50) fell in the range of 100 to 1000 nM.

Regarding `Cc1cc(Nc2ncc(C3CC3)cn2)cc(-c2cnc(C(C)(O)C(F)(F)F)s2)c1` (stereo not shown) [Example 100B-4], the IC50 lay within 1000 to 10000 nM.

In the case of `Cc1cnc(Nc2cc(C)cc(-c3cnc(C(C)(O)C(F)(F)F)s3)c2)nc1` (stereo not shown) [Example 100], the IC50 is < 100 nM.

Consider `Cc1cc(Nc2ncccn2)cc(-c2cnc(C(C)(O)C(F)(F)F)s2)c1` (stereo not shown) [Example 101, 1,1,1-trifluoro-2-{5-[3-methyl-5-(pyrimidin-2-ylamino)phenyl]-1,3-thiazol-2-yl}propan-2-ol], for which the IC50 lay within 100 to 1000 nM.

Take `CCOC(=O)C1CCC(O)(c2ncc(-c3cc(C)cc(Nc4nccc(C(C)(C)C)n4)c3)s2)CC1C` (stereo not shown) [Example 101-1]: the IC50 is < 100 nM.

For the compound `COC(=O)[C@H]1CC[C@](O)(c2ncc(-c3cc(C)cc(Nc4nccc(C(C)C)n4)c3)s2)CC1(C)C` [Example 101-2], the IC50 was < 100 nM.

Turning to `COC(=O)[C@H]1CC[C@](O)(c2ncc(-c3cc(C)cc(Nc4nccc(C(C)(C)C)n4)c3)s2)CC1(C)C` [Example 101-3], the IC50 is < 100 nM.

`COC(=O)[C@H]1CC[C@](O)(c2ncc(-c3cc(C)cc(Nc4nccc(OC(C)C)n4)c3)s2)CC1(C)C` [Example 101-4]: the IC50 is < 100 nM.

For the compound `C=Cc1ccnc(Nc2cc(C)cc(-c3cnc([C@@]4(O)CC[C@H](C(=O)OC)C(C)(C)C4)s3)c2)n1` [Example 101-5], the half-inhibitory concentration (IC50) was < 100 nM.

With `COC(=O)[C@H]1CC[C@](O)(c2ncc(-c3cc(C)cc(Nc4nccc(C5CCC5)n4)c3)s2)CC1(C)C` [Example 101-6], the IC50 is < 100 nM.

As for `COC(=O)[C@H]1CC[C@](O)(c2ncc(-c3cc(C)cc(Nc4nccc(C(N)=O)n4)c3)s2)CC1(C)C` [Example 101-7], the IC50 is < 100 nM.

Take `COc1nc(Nc2cc(C)cc(-c3cnc(C4(O)CCC4)s3)c2)ncc1Cl` [Example 102, 1-(5-{3-[(5-chloro-4-methoxypyrimidin-2-yl)amino]-5-methylphenyl}-1,3-thiazol-2-yl)-cyclobutanol]: the IC50 was < 100 nM.

On to `Cc1cc(Nc2ncc(Cl)c(C)n2)cc(-c2cnc(C3(O)CCC3)s2)c1` [Example 103, 1-(5-{3-[(5-chloro-4-methylpyrimidin-2-yl)amino]-5-methylphenyl}-1,3-thiazol-2-yl)cyclobutanol], for which the IC50 is < 100 nM.

Turning to `C=Cc1ccnc(Nc2cc(C)cc(-c3cnc(C4(O)CCC4)s3)c2)n1` [Example 104, 1-(5-{3-[(4-ethenylpyrimidin-2-yl)amino]-5-methylphenyl}-1,3-thiazol-2-yl)cyclobutanol], the IC50 was < 100 nM.

As for `COC/C=C/c1ccnc(Nc2cc(C)cc(-c3cnc(C4(O)CCC(C(=O)OC(C)(C)C)CC4)s3)c2)n1` (stereo not shown) [Example 104-1], the IC50 lay in the range of 100 to 1000 nM.

Turning to `COC/C=C/c1ccnc(Nc2cc(C)cc(-c3cnc(C4(O)CCC(C(=O)O)CC4)s3)c2)n1` (stereo not shown) [Example 104-2], the IC50 was < 100 nM.

Regarding `Cc1cc(Nc2nccc(C(O)CO)n2)cc(-c2cnc(C3(O)CCC3)s2)c1` (stereo not shown) [Example 105, 1-[2-({3-[2-(1-hydroxycyclobutyl)-1,3-thiazol-5-yl]-5-methylphenyl}amino)pyrimidin-4-yl]ethane-1,2-diol], the IC50 is < 100 nM.

Consider `CC(=O)c1ccnc(Nc2cc(C)cc(-c3cnc(C(C)(O)C(F)(F)F)s3)c2)n1` (stereo not shown) [Example 106, 1-[2-({3-methyl-5-[2-(1,1,1-trifluoro-2-hydroxypropan-2-yl)-1,3-thiazol-5-yl]phenyl}amino)pyrimidin-4-yl]ethanone], for which the IC50 was < 100 nM.

As for `Cc1cc(Nc2nccc(C3CCC3)n2)cc(-c2cnc(C3(O)CCC3)s2)c1` [Example 107, 1-(5-{3-[(4-cyclobutylpyrimidin-2-yl)amino]-5-methylphenyl}-1,3-thiazol-2-yl)cyclobutanol], the IC50 is < 100 nM.

`Cc1cc(Nc2nccc(C3CCCC3)n2)cc(-c2cnc(C3(O)CCC3)s2)c1` [Example 107-1]: the IC50 was < 100 nM.

Turning to `Cc1cc(Nc2nccc(C3CCCCC3)n2)cc(-c2cnc(C3(O)CCC3)s2)c1` [Example 107-2], the IC50 is < 100 nM.

Still in this experiment, the particulars now being: rhSYK Activity, Table 108A.
Take `Cc1cc(Nc2nccc(OCc3nccn3C)n2)cc(-c2cnc(C3(O)CCC3)s2)c1` [Example 108A-1]: the IC50 is < 100 nM.
